# Laboratory results reported in patent US9796719B2, “Compounds and pharmaceutical compositions thereof for the treatment of inflammatory disorders” (GALAPAGOS NV, priority 2013, dated 2017).
# pIC50: −log10 of the molar value. Counter-ions that a name gives are not always drawn.
# Target: hENPP2 (UniProtKB/SwissProt Sequence ref Q13822) (Homo sapiens (Human), UniProt Q13822)
# Assay: LPC hENPP2 assay (choline release, LPC as substrate)
# Format: biochemical
# Outline: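 Detection is coupled: choline oxidase produces peroxide, which HRP uses to form quinoneimine dye from TOOS and 4-aminoantipyrine, read at 555 nm. The reaction is stopped with 20 mM EGTA in the developer mix, then incubated 30 min at room temperature; inhibition lowers signal.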
row,pIC50,Compound
1,7.00 to 11.00,"CCc1nc2ccc(N3CC[C@@H](NCC(=O)N(C)C)C3)nn2c1N(C)c1nc(-c2ccc(F)cc2)c(C#N)s1 [Cpd 177, (R)-2-(1(3-((5-cyano-4-(4-fluorophenyl)thiazol-2-yl)(methyl)amino)-2-ethylimidazo[1,2-b]pyridazin-6-yl)pyrrolidin-3-ylamino)-N,N-dimethylacetamide]"
2,< 6.00,"CCc1nc2cnc(N3CCNCC3)cn2c1N(C)c1nc(-c2ccc(F)cc2C#N)cs1 [Cpd 15, 2-(2-((2-ethyl-6-(piperazin-1-yl)imidazo[1,2-a]pyrazin-3-yl)(methyl)amino)thiazol-4-yl)-5-fluorobenzonitrile]"
3,6.00 to 6.30,"CCc1nc2ccc(N3CCC(N4CCOCC4)C3)nn2c1N(C)c1nc(-c2ccc(F)cc2)c(CO)s1 (stereo not drawn) [Cpd 148, (2-((2-ethyl-6-(3-morpholino-pyrrolidin-1-yl)imidazo[1,2-b]pyridazin-3-yl)(methyl)amino)-4-(4-fluorophenyl)thiazol-5-yl) methanol]"
4,< 6.00,"CCc1nc2ccc(N3CCC(CNC(=O)N(C)C)CC3)nn2c1N(C)c1nc(-c2ccc(F)cc2)cs1 [Cpd 106, 3-((l-(2-ethyl-3-((4-(4-fluorophenyl)thiazol-2-yl)(methyl)amino)imidazo[1,2-b]pyridazin-6-yl)piperidin-4-yl)methyl)-1,1-dimethylurea]"
5,< 6.00,"CCc1nc2ccc(N3CCC(CNC(=O)OC(C)(C)C)CC3)nn2c1N(C)c1nc(-c2ccc(F)cc2)cs1 [Cpd 103, [1-(2-Ethyl-3-{[4-(4-fluoro-phenyl)-thiazol-2-yl]-methyl-amino}-imidazo[1,2-b]pyridazin-6-yl)-piperidin-4-ylmethyl]-carbamic acid tert-butyl ester]"
6,< 6.00,"CCc1nc2ccc(N3C[C@H]4C[C@H]3CN4S(C)(=O)=O)nn2c1N(C)c1nc(-c2ccc(F)cc2)cs1 [Cpd 76, N-(2-ethyl-6-((1S,4R)-5-(methylsulfonyl)-2,5-diazabicyclo[2.2.1]heptan-2-yl)imidazo[1,2-b]pyridazin-3-yl)-4-(4-fluorophenyl)-N-methylthiazol-2-amine]"
7,6.30 to 7.00,"CCc1nc2ccc(N3CC(C(=O)N4CCC(O)C4)C3)nn2c1N(C)c1nc(-c2ccc(F)cc2)c(C#N)s1 (stereo not drawn) [Cpd 192, 2-((2-ethyl-6-(3-(3-hydroxy-pyrrolidine-1-carbonyl)azetidin-1-yl)imidazo[1,2-b]pyridazin-3-yl)(methyl)amino)-4-(4-fluorophenyl) thiazole-5-carbonitrile]"
8,6.30 to 7.00,"CCc1nc2ccc(C3=CCN(S(C)(=O)=O)CC3)nn2c1N(C)c1nc(-c2ccc(F)cc2C#N)cs1 [Cpd 204, 2-(2-((2-ethyl-6-(1-(methylsulfonyl)-1,2,3,6-tetrahydropyridin-4-yl)imidazo[1,2-b]pyridazin-3-yl)(methyl)amino)thiazol-4-yl)-5-fluorobenzonitrile]"
9,7.00 to 11.00,"CCc1nc2ccc(N3CCC(N4CCC(N(C)C(C)=O)CC4)C3)nn2c1N(C)c1nc(-c2ccc(F)cc2)c(C#N)s1 (stereo not drawn) [Cpd 181, N-(1-(1-(3-((5-cyano-4-(4-fluorophenyl)thiazol-2-yl)(methyl)amino)-2-ethylimidazo[1,2-b]pyridazin-6-yl)pyrrolidin-3-yl)piperidin-4-yl)-N-methylacetamide]"
10,6.30 to 7.00,"CCc1nc2ccc(N3CCN(CC(=O)N4CCC(F)(F)C4)CC3)nn2c1N(C)c1nc(-c2ccc(F)cc2)cs1 [Cpd 31, 1-(3,3-difluoropyrrolidin-l-yl)-2-(4-(2-ethyl-3-((4-(4-fluorophenyl)thiazol-2-yl)(methyl)amino)imidazo[1,2-b]pyridazin-6-yl)piperazin-l-yl)ethanone]"
11,6.30 to 7.00,"CCc1nc2ccc(N3CC(NCC(=O)N4CC(O)C4)C3)nn2c1N(C)c1nc(-c2ccc(F)cc2)cs1 [Cpd 155, 2-(1-(2-ethyl-3-((4-(4-fluorophenyl)thiazol-2-yl)(methyl)amino)imidazo[1,2-b]pyridazin-6-yl)azetidin-3-ylamino)-1-(3-hydroxyazetidin-1-yl)ethanone]"
12,< 6.00,"CCc1nc2ccc(N3CCC(OC=O)C3)nn2c1N(C)c1nc(-c2ccc(F)cc2)cs1 (stereo not drawn) [Compound 130, 1-(2-ethyl-3-((4-(4-fluorophenyl)thiazol-2-yl)(methyl)amino)imidazo[1,2-b]pyridazin-6-yl)pyrrolidin-3-yl formate]"
13,7.00 to 11.00,"CCc1nc2ccc(N3CCC(O)(CNC(=O)OC)C3)nn2c1N(C)c1nc(-c2ccc(F)cc2)c(C#N)s1 (stereo not drawn) [Cpd 168, methyl (1-(3-((5-cyano-4-(4-fluorophenyl)thiazol-2-yl)(methyl)amino)-2-ethylimidazo[1,2-b]pyridazin-6-yl)-3-hydroxypyrrolidin-3-yl)]"
14,6.30 to 7.00,"CCc1nc2ccc(C3CCN(CC(=O)N(C)C)CC3)nn2c1N(C)c1nc(-c2ccc(F)cc2C#N)cs1 [Cpd 208, 2-(4-(3-((4-(2-cyano-4-fluorophenyl)thiazol-2-yl)(methyl)amino)-2-ethylimidazo[1,2-b]pyridazin-6-yl)piperidin-1-yl)-N,N-dimethylacetamide]"
15,7.00 to 11.00,"CCc1nc2ccc(N3CC[C@H](NCC(=O)N(C)C)C3)nn2c1N(C)c1nc(-c2ccc(F)cc2)c(C#N)s1 [Cpd 175, (S)-2-(1-(3-((5-cyano-4-(4-fluorophenyl)thiazol-2-yl)(methyl)amino)-2-ethylimidazo[1,2-b]pyridazin-6-yl)pyrrolidin-3-ylamino)-N,N-dimethylacetamide]"
16,< 6.00,"CCc1nc2cnc(N3CCN(CC(=O)N4CCC4)CC3)cn2c1N(C)c1nc(-c2ccc(F)cc2)cs1 [Cpd 13, 1-(azetidin-1-yl)-2-(4-(2-ethyl-3-((4-(4-fluorophenyl)thiazol-2-yl)(methyl)amino)imidazo[1,2-a]pyrazin-6-yl)piperazin-1-yl)ethanone]"
17,< 6.00,"CCc1nc2ccc(N3CCN(CC(=O)NCCO)CC3)nn2c1N(C)c1nc(-c2ccc(F)cc2)cs1 [Cpd 35, 2-(4-(2-ethyl-3-((4-(4-fluorophenyl)thiazol-2-yl)(methyl)amino)imidazo[1,2-b]pyridazin-6-yl)piperazin-1-yl)-N-(2-hydroxyethyl) acetamide]"
18,7.00 to 11.00,"CCc1nc2ccc(N3CC[C@H](NCC(=O)N4CC(O)C4)C3)nn2c1N(C)c1nc(-c2ccc(F)cc2)c(C#N)s1 [Cpd 174, (S)-2-((2-ethyl-6-(3-(2-(3-hydroxyazetidin-1-yl)-2-oxoethylamino)pyrrolidin-1-yl)imidazo[1,2-b]pyridazin-3-yl)(methyl)amino)-4-(4-fluorophenyl) thiazole-5-carbonitrile]"
19,6.00 to 6.30,"CCc1nc2ccc(C3CCN(CC(=O)N(C)C)CC3)nn2c1N(C)c1nc(-c2ccc(F)cc2)c(CO)s1 [Cpd 203, 2-(4-(2-ethyl-3-((4-(4-fluorophenyl)-5-(hydroxymethyl)thiazol-2-yl)(methyl)amino)imidazo[1,2-b]pyridazin-6-yl)piperidin-1-yl)-N,N-dimethylacetamide]"
20,< 6.00,"CCOC(=O)NCCN1CCN(c2ccc3nc(CC)c(N(C)c4nc(-c5ccc(F)cc5)cs4)n3n2)CC1 [Cpd 58, ethyl 2-(4-(2-ethyl-3-((4-(4-fluorophenyl)thiazol-2-yl)(methyl)amino)imidazo[1,2-b]pyridazin-6-yl)piperazin-1-yl)ethylcarbamate]"
21,7.00 to 11.00,"CCc1nc2ccc(N3CC(NS(C)(=O)=O)C3)nn2c1N(C)c1nc(-c2ccc(F)cc2)c(C#N)s1 [Cpd 190, N-(1-(3-((5-cyano-4-(4-fluorophenyl)thiazol-2-yl)(methyl)amino)-2-ethylimidazo[1,2-b]pyridazin-6-yl)azetidin-3-yl)methane-sulfonamide]"
22,6.30 to 7.00,"CCc1nc2ccc(N3CC(C(=O)N4CCOCC4)C3)nn2c1N(C)c1nc(-c2ccc(F)cc2)c(C#N)s1 [Cpd 191, 2-((2-ethyl-6-(3-(morpholine-4-carbonyl)azetidin-1-yl)imidazo[1,2-b]pyridazin-3-yl)(methyl)amino)-4-(4-fluorophenyl) thiazole-5-carbonitrile]"
23,7.00 to 11.00,"CCc1nc2ccc(N3CCN(CC4CNC(=O)O4)CC3)nn2c1N(C)c1nc(-c2ccc(F)cc2)c(C#N)s1 (stereo not drawn) [Cpd 160, 2-((2-ethyl-6-(4-((2-oxooxazolidin-5-yl)methyl)piperazin-1-yl)imidazo[1,2-b]pyridazin-3-yl)(methyl)amino)-4-(4-fluorophenyl) thiazole-5-carbonitrile]"
24,< 6.00,"CCc1nc2ccc(C3CCNCC3)nn2c1N(C)c1nc(-c2ccc(F)cc2C#N)ns1 [Compound 219, 2-(5-((2-ethyl-6-(piperidin-4-yl)imidazo[1,2-b]pyridazin-3-yl)(methyl)amino)-1,2,4-thiadiazol-3-yl)-5-fluorobenzonitrile]"
25,6.00 to 6.30,"CCc1nc2ccc(N3CC(NCC(=O)N(C)C)C3)nn2c1N(C)c1nc(-c2ccc(F)cc2)cs1 [Cpd 156, 2-(1-(2-ethyl-3-((4-(4-fluorophenyl)thiazol-2-yl)(methyl)amino)imidazo[1,2-b]pyridazin-6-yl)azetidin-3-ylamino)-N,N-dimethylacetamide]"
26,6.00 to 6.30,CCc1nc2ccc(N3CCN(CC(=O)NC)CC3)nn2c1N(C)c1nc(-c2ccc(F)cc2)cs1 [Cpd 30]
27,7.00 to 11.00,"CCc1nc2ccc(N3CCC(N4CCN(C(C)=O)CC4)C3)nn2c1N(C)c1nc(-c2ccc(F)cc2)c(C#N)s1 (stereo not drawn) [Cpd 180, 2-((6-(3-(4-acetoylpiperazin-1-yl)pyrrolidin-1-yl)-2-ethylimidazo[1,2-b]pyridazin-3-yl)(methyl)amino)-4-(4-fluorophenyl) thiazole-5-carbonitrile]"
